What was measured:
Format in all cases: in vivo
[1] = system: barnyardgrass (Echinochloa crus-galli); test: Test A pre-/postemergence plant response
Procedure, shortened: (§1)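 Greenhouse trial, ~10 days. Soil (loam/sand) sprayed preemergence after seeding; emerged plants (1–2 leaf, 2–10 cm) sprayed postemergence in parallel. Response = visual injury vs untreated control, 0–100.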

corn (Zea mays) = test: Test A pre-/postemergence plant response
Procedure, shortened: as §1

[2] = system: giant foxtail (Setaria faberii); test: Test A pre-/postemergence plant response
Procedure, shortened: as §1

[3] = system: large crabgrass (Digitaria sanguinalis); test: Test A pre-/postemergence plant response
Procedure, shortened: as §1

[4] = system: morningglory (Ipomoea spp.); test: Test A pre-/postemergence plant response
Procedure, shortened: as §1

[5] = system: pigweed (Amaranthus retroflexus); test: Test A pre-/postemergence plant response
Procedure, shortened: as §1

[6] = system: velvetleaf (Abutilon theophrasti); test: Test A pre-/postemergence plant response
Procedure, shortened: as §1

[7] = system: wheat (Triticum aestivum); test: Test A pre-/postemergence plant response
Procedure, shortened: as §1

[8] = system: canarygrass (Phalaris minor); test: Test B postemergence plant response; conditions: Postemergence; for Canarygrass plant response rating: 250 g ai/ha, scale 0 to 100
Description: (§2) At the same time, plants selected from these crop and weed species and also winter barley (Hordeum vulgare), canarygrass (Phalaris minor), chickweed (Stellaria media) and windgrass (Apera spica-venti) were planted in pots containing Redi-Earth® planting medium (Scotts Company, 14111 Scottslawn Road, Marysville, Ohio 43041) comprising spaghnum peat moss, vermiculite, wetting agent and starter nutrients and treated with postemergence applications of some of the test chemicals formulated in the same manner. Plants ranged in height from 2 to 18 cm (1- to 4-leaf stage) for postemergence treatments.
(§3) Treated plants and controls were maintained in a greenhouse for 13 to 15 days, after which time all treated plants were visually evaluated and compared to controls. Plant response ratings, summarized in Table B, are based on a scale of 0 to 100 where 0 is no effect and 100 is complete control. A dash (-) response means no test result.

[9] = system: chickweed (Stellaria media); test: Test B postemergence plant response; conditions: Postemergence; for Chickweed plant response rating: 250 g ai/ha, scale 0 to 100
Description: as §2, §3

[10] = system: windgrass (Apera spica-venti); test: Test B postemergence plant response; conditions: Postemergence; for Windgrass plant response rating: 250 g ai/ha, scale 0 to 100
Description: as §2, §3

[11] = system: winter barley (Hordeum vulgare); test: Test B postemergence plant response; conditions: Postemergence; for Barley plant response rating: 250 g ai/ha, scale 0 to 100
Description: as §2, §3

[12] = Postemergence, 125 g ai/ha, visual injury, 0 to 100 scale (0 no effect, 100 complete control), approx. ten days
[13] = Postemergence, 500 g ai/ha, 0 to 100 scale, 0 = no effect, 100 = complete control, approx. ten days
[14] = Preemergence, 125 g ai/ha, 0 to 100 scale, 0 = no effect, 100 = complete control
[15] = Preemergence, 500 g ai/ha, visual injury, 0 to 100 scale (0 no effect, 100 complete control), approx. ten days
[16] = 31 g ai/ha, scale 0 to 100 (0 no effect, 100 complete control)
[17] = 62 g ai/ha, scale 0 (no effect) to 100 (complete control), 13 to 15 days
[18] = 125 g ai/ha, visual rating after 13 to 15 days, scale 0 (no effect) to 100 (complete control)
[19] = 125 g ai/ha, scale 0 to 100 (0 no effect, 100 complete control), 13 to 15 days

Substance: 3-cyclohexyl-5-[(2-hydroxy-6-oxo-1-cyclohexen-1-yl)carbonyl]-2-phenyl-4(3H)-pyrimidinone [Compound 128]
- Barnyardgrass plant response rating [1, 12]: 40
- Plant response rating, Barnyardgrass [1, 13]: 100
- Plant response rating, Barnyardgrass [1, 14]: 0
- Plant response rating, Barnyardgrass [1, 15]: 70
- Corn plant response rating (corn (Zea mays); [12]): 0
- Plant response rating, Corn (corn (Zea mays); [13]): 20
- Plant response rating, Corn (corn (Zea mays); [14]): 0
- Plant response rating, Corn (corn (Zea mays); [15]): 0
- Foxtail, Giant plant response rating [2, 12]: 70
- Plant response rating, Foxtail, Giant [2, 13]: 90
- Plant response rating, Foxtail, Giant [2, 14]: 10
- Plant response rating, Foxtail, Giant [2, 15]: 50
- Crabgrass, Large plant response rating [3, 12]: 50
- Plant response rating, Crabgrass, Large [3, 13]: 90
- Plant response rating, Crabgrass, Large [3, 14]: 20
- Plant response rating, Crabgrass, Large [3, 15]: 90
- Morningglory plant response rating [4, 12]: 90
- Plant response rating, Morningglory [4, 13]: 90
- Plant response rating, Morningglory [4, 14]: 0
- Plant response rating, Morningglory [4, 15]: 70
- Pigweed plant response rating [5, 12]: 90
- Plant response rating, Pigweed [5, 13]: 100
- Plant response rating, Pigweed [5, 14]: 60
- Plant response rating, Pigweed [5, 15]: 100
- Velvetleaf plant response rating [6, 12]: 100
- Plant response rating, Velvetleaf [6, 13]: 100
- Plant response rating, Velvetleaf [6, 14]: 60
- Plant response rating, Velvetleaf [6, 15]: 100
- Wheat plant response rating [7, 12]: 0
- Plant response rating, Wheat [7, 13]: 0
- Plant response rating, Wheat [7, 14]: 0
- Plant response rating, Wheat [7, 15]: 0
- Plant response rating, Canarygrass [8, 16]: 50
- Plant response rating, Canarygrass [8, 17]: 50
- Plant response rating, Canarygrass [8, 18]: 90
- Canarygrass plant response rating [8]: 90
- Plant response rating, Chickweed [9, 16]: 80
- Plant response rating, Chickweed [9, 17]: 98
- Plant response rating, Chickweed [9, 18]: 100
- Chickweed plant response rating [9]: 100
- Plant response rating, Windgrass [10, 16]: 40
- Plant response rating, Windgrass [10, 17]: 85
- Plant response rating, Windgrass [10, 18]: 85
- Windgrass plant response rating [10]: 98
- Plant response rating, Barley [11, 16]: 0
- Plant response rating, Barley [11, 17]: 10
- Plant response rating, Barley [11, 19]: 10
- Barley plant response rating [11]: 10

Substance: 5-[(2-hydroxy-6-oxo-1-cyclohexen-1-yl)carbonyl]-2,3-diphenyl-4(3H)-pyrimidinone [Compound 2]
- Barnyardgrass plant response rating [1, 12]: 20
- Plant response rating, Barnyardgrass [1, 13]: 60
- Plant response rating, Barnyardgrass [1, 14]: 0
- Plant response rating, Barnyardgrass [1, 15]: 10
- Corn plant response rating (corn (Zea mays); [12]): 0
- Plant response rating, Corn (corn (Zea mays); [13]): 0
- Plant response rating, Corn (corn (Zea mays); [14]): 0
- Plant response rating, Corn (corn (Zea mays); [15]): 0
- Foxtail, Giant plant response rating [2, 12]: 10
- Plant response rating, Foxtail, Giant [2, 13]: 40
- Plant response rating, Foxtail, Giant [2, 14]: 0
- Plant response rating, Foxtail, Giant [2, 15]: 10
- Crabgrass, Large plant response rating [3, 12]: 50
- Plant response rating, Crabgrass, Large [3, 13]: 80
- Plant response rating, Crabgrass, Large [3, 14]: 10
- Plant response rating, Crabgrass, Large [3, 15]: 70
- Morningglory plant response rating [4, 12]: 70
- Plant response rating, Morningglory [4, 13]: 90
- Plant response rating, Morningglory [4, 15]: 50
- Pigweed plant response rating [5, 12]: 70
- Plant response rating, Pigweed [5, 13]: 80
- Plant response rating, Pigweed [5, 14]: 20
- Plant response rating, Pigweed [5, 15]: 100
- Velvetleaf plant response rating [6, 12]: 100
- Plant response rating, Velvetleaf [6, 13]: 100
- Plant response rating, Velvetleaf [6, 14]: 60
- Plant response rating, Velvetleaf [6, 15]: 80
- Wheat plant response rating [7, 12]: 10
- Plant response rating, Wheat [7, 13]: 20
- Plant response rating, Wheat [7, 14]: 0
- Plant response rating, Wheat [7, 15]: 0
- Plant response rating, Canarygrass [8, 16]: 0
- Plant response rating, Canarygrass [8, 17]: 0
- Plant response rating, Canarygrass [8, 18]: 0
- Canarygrass plant response rating [8]: 0
- Plant response rating, Chickweed [9, 16]: 55
- Plant response rating, Chickweed [9, 17]: 60
- Plant response rating, Chickweed [9, 18]: 65
- Chickweed plant response rating [9]: 90
- Plant response rating, Windgrass [10, 16]: 0
- Plant response rating, Windgrass [10, 17]: 0
- Plant response rating, Windgrass [10, 18]: 0
- Windgrass plant response rating [10]: 5
- Plant response rating, Barley [11, 16]: 0
- Plant response rating, Barley [11, 17]: 0
- Plant response rating, Barley [11, 19]: 0
- Barley plant response rating [11]: 0

Reference: patent US8952024B2, “Herbicidal pyrimidone derivatives” (E I du Pont de Nemours and Company, priority 2009, dated 2015)
